Results on one compound are retold here after ChEMBL document CHEMBL4368907 (J Med Chem, 2019).

The nature of data set [1]: Chemical stability of the compound in sodium phosphate buffer assessed as loss of purity 0.5 mM at pH 7.4 at 37 degC after 1 week by UHLPC-UV analysis. Conditions: read-out: Drug degradation. The data set is classed as physicochemical.
The nature of data set [2]: Chemical stability of the compound in sodium phosphate buffer assessed as purity 0.5 mM at pH 2.2 at 37 degC after 1 week by UHLPC-UV analysis. It is filed as physicochemical. Conditions: read-out: Stability.

`CCCC[C@H](NC(=O)[C@H](Cc1ccc(OS(=O)(=O)O)cc1)NC(=O)[C@H](CC(=O)O)NC(=O)COCCOCCNC(=O)COCCOCCNC(=O)CC[C@H](NC(=O)CCCCCCCCCCCCCCCCC(=O)O)C(=O)O)C(=O)NCC(=O)N[C@@H](Cc1c[nH]c2ccccc12)C(=O)N[C@@H](CCCC)C(=O)N[C@@H](CC(=O)O)C(=O)N[C@@H](Cc1ccccc1)C(N)=O`: the degraded at 168 h, 500 µM in data set [1] was 0.8%. Besides, in data set [2], the remaining at 168 h, 500 µM was found to be 22%.
